Test results as given in patent publication US20090163474A1, “FXR Agonists for the Treatment of Nonalcoholic Fatty Liver and Cholesterol Gallstone Diseases” (Wyeth, priority 2007, published 2009).
Like-named read-outs stand apart in the source and are kept apart here.

How the values were obtained:
[1] = test system: Wildtype mice challenged with LPS; test: LPS-induced liver acute phase response, wildtype mice; format: in vivo; conditions: 30 mg/kg for 4 days; 2.5 micrograms LPS, 4 hours; P<0.01
Experimental: (§1) Wildtype and FXR deficient mice were treated with Compound A (30 mg/kg) or vehicle for 4 days. On day 4, mice were challenged with 2.5 micrograms of lipopolysaccharide (LPS) to induce an acute phase response. After 4 hours, the mice were euthanized and their livers were harvested for analysis of expression of various factors. […] Compound A attenuated the LPS-induced murine liver acute phase response. […] (*P<0.01, WT/LPS/V vs. WT/LPS/Compound A).

Hep3B cells [2] = test: IL-6 induced CRP secretion in Hep3B cells; format: cell-based, Human; conditions: for IC50: Homo sapiens, Hep3B, read-out: IC50 of inhibitory effect on CRP secretion
Experimental: (§2) Human hepatoma cells, Hep3B secrete the acute phase protein, C-reactive protein (CRP) upon IL-6 treatment. Cells were cotreated with Compound A to determine if Compound A could decrease IL-6 induced CRP secretion.
FIGS. 24A, 24B, and 24C show the levels of CRP secretion (pg/ml) in Hep3B cells after stimulation with IL-6 (10 ng/ml), or IL-6 (50 ng/ml), or IL-6 (10 ng/ml & IL-1β 20 ng/ml), and treated with vehicle (DMSO) or Compound A (5 μM). […] (*P<0.001, Hep3B/DMSO vs. Hep3B/Compound A).

[3] = test system: C57BL/6 mice fed a Paigen diet; test: Paigen diet fed mice: serum, liver gene expression and liver histology; format: in vivo; conditions: 30 mg/kg orally once a day for 4 weeks
Experimental: Male C57BL/6 mice were fed a standard chow diet or a Paigen diet (TestDiet 32350 containing 7.5% Cocoa Butter, 1.25% cholesterol, and 0.5% cholic acid). Paigen diet fed mice were administered vehicle or 30 mg/kg FXR agonist, Compound A (isopropyl 3-(3,4-difluorobenzoyl)-1,1-dimethyl-1,2,3,6-tetrahydroazepino[4,5-b]indole-5-carboxylate) orally once a day for 4 weeks. Three hours after the final treatment, mice were euthanized and blood and liver were collected for analyses.
Real-time RT PCR analysis of liver RNA was performed. FIGS. 3A, 3B, and 3C show the expression levels of vascular cell adhesion molecule 1 (VCAM-1), intercellular adhesion molecule-1 (ICAM-1), and tumor necrosis factor α (TNFα). Expression levels were normalized to GAPDH, and the mean level of expression of each gene in mice fed a standard chow diet was defined as 1.0. 6 mice were tested in each group. Data are presented as the mean±SE.
Male C57BL/6 mice were fed a chow diet or a Paigen diet. Paigen fed mice were administered vehicle or 30 mg/kg Compound A orally once a day for 4 weeks. Three hours after the final treatment, mice were euthanized, and histological analysis of livers was performed. Frozen liver sections (5 μm) were prepared and stained with Oil Red O, hematoxylin and eosin (H&E), and Masson's trichrome (Trichrome).
Male C57BL/6 mice were fed a chow diet or a Paigen diet. Paigen fed mice were administered vehicle or 30 mg/kg Compound A orally once a day for 4 weeks. Three hours after the final treatment, mice were euthanized, and real-time RT PCR analysis of liver RNA was performed.

[4] = test system: C57BL/6 mice with preformed gallstones; test: Gallstone dissolution in mice with preformed gallstones; format: in vivo; conditions: Paigen diet 4 weeks, then 30 mg/kg orally once a day on chow diet for 4 weeks
Experimental: To study gallstone dissolution, gallbladders were harvested from mice treated as follows. C57BL/6 mice were fed a Paigen diet for 4 weeks to initiate gallstone formation. Subsequently these mice were administered vehicle or 30 mg/kg Compound A orally once a day and fed a standard chow diet for 4 weeks to study the effect of Compound A on preformed gallstones.

[5] = test system: FXRKO mice challenged with LPS; test: LPS-induced liver acute phase response, FXR deficient mice; format: in vivo; conditions: 30 mg/kg for 4 days; LPS treated FXRKO mice
Experimental: as §1

Hep3B cells [6] = test: IL-6 induced CRP gene expression in Hep3B cells; format: cell-based, Human; conditions: Compound A 1 μM; IL-6 10 ng/ml or 50 ng/ml; P<0.001 vs DMSO
Experimental: as §2
FIGS. 26A and 26B show the CRP gene expression level in Hep3B cells stimulated with IL-6 (10 ng/ml or 50 ng/ml), and treated with vehicle (DMSO) or Compound A (1 μM). […] (*P<0.001, Hep3B/DMSO vs. Hep3B/Compound A).

[7] = RT PCR, normalized to GAPDH, p<0.0001

Structure (SMILES): CC(C)OC(=O)C1=CN(C(=O)c2ccc(F)c(F)c2)CC(C)(C)c2c1[nH]c1ccccc21 [Compound A, isopropyl 3-(3,4-difluorobenzoyl)-1,1-dimethyl-1,2,3,6-tetrahydroazepino[4,5-b]indole-5-carboxylate]
- reduction of liver SAA-3 levels vs vehicle [1]: 35%
- reduction of liver SAP levels vs vehicle [1]: 40%
- reduction of liver VCAM-1 levels vs vehicle [1]: 40%
- IL-6 induced CRP secretion (Hep3B cells [2]; Compound A 5 μM, IL-6 10 ng/ml, IL-6 50 ng/ml, or IL-6 10 ng/ml & IL-1β 20 ng/ml, P<0.001 vs DMSO): inhibited
- IC50 (Hep3B cells [2]; 10 ng/ml of IL-6): 224 nM
- IC50 (Hep3B cells [2]; 50 ng/ml IL-6): 220 nM
- Paigen diet induced liver damage (histological analyses) [3]: attenuated Paigen diet induced liver damage
- intracellular vacuoles characteristic of lipid droplets in liver (H&E and Trichrome) [3]: reduced the number and severity of the vacuoles
- liver BSEP expression level, increase ([3]; Paigen diet): 2.41 fold
- liver MDR2 expression level, increase ([3]; Paigen diet): 1.4 fold
- liver SHP expression level, increase ([3]; Paigen diet): 4.85 fold
- liver ICAM-1 expression level (Paigen diet induction) [3, 7]: significantly inhibited
- liver TNFα expression level (Paigen diet induction) [3, 7]: significantly inhibited
- liver VCAM-1 expression level (Paigen diet induction) [3, 7]: significantly inhibited
- inflammatory cholangitis with portal inflammation in liver ([3]; histology): significantly more severe in the livers of vehicle treated compared to Compound A treated mice
- serum alanine aminotransferase (ALT) activity level ([3]; mean±SE, vehicle 292.1±33.6 U/L, p<0.0001): 98.1±22.5 U/L
- serum level of MCP-1 vs vehicle ([3]; p<0.0001): significantly reduced
- neutral lipid accumulation in the liver (Oil Red O staining) ([3]; vs vehicle): reduction in neutral lipid accumulation
- liver FAS expression, further induction ([3]; vs vehicle treated Paigen diet mice, p<0.0001): 2.4 fold
- Gallstone dissolution (gallstone incidence, mice with gallstones/mice) ([4]; vehicle 13/26): 5/20
- gallstone incidence in mice with preformed gallstones ([4]; vehicle 50%): 25%
- liver SAA-3 levels [5]: not significantly altered
- liver SAP levels [5]: not significantly altered
- liver VCAM-1 levels [5]: not significantly altered
- IL-6 induced CRP mRNA levels (Hep3B cells [6]): reduced
